What all share (assay): relative viability (nuclei count vs DMSO), 5 days (fraction); higher = more cells survive
Compound in the experiment “Salubrinal + Luminespib”: O=C(/C=C/c1ccccc1)NC(NC(=S)Nc1cccc2cccnc12)C(Cl)(Cl)Cl [Salubrinal] + CCNC(=O)c1noc(-c2cc(C(C)C)c(O)cc2O)c1-c1ccc(CN2CCOCC2)cc1 [Luminespib] (partner 0.01 µM)
The procedure, abridged:
(§1)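 Lung cancer cell lines in 1536-well plates got either a single drug or a fixed anchor-drug dose together with five library-drug doses (not always all listed) in √10 steps, by pin tool, on the day after seeding. Nuclei were counted after 5 days, and relative viability is the treated-to-vehicle ratio of nuclei counts. Values are medians of duplicate plates.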

Compound in experiment [1]: Cc1ccc2nc(NCCN)c3ncc(C)n3c2c1 + C[C@@H](Oc1cc(-c2cnn(C3CCNCC3)c2)cnc1N)c1c(Cl)ccc(F)c1Cl [Crizotinib] (partner 1 µM)
The procedure, abridged:
as §1

Compound in the experiment “Salubrinal + Dasatinib”: O=C(/C=C/c1ccccc1)NC(NC(=S)Nc1cccc2cccnc12)C(Cl)(Cl)Cl [Salubrinal] + Cc1nc(Nc2ncc(C(=O)Nc3c(C)cccc3Cl)s2)cc(N2CCN(CCO)CC2)n1 [Dasatinib] (partner 0.075 µM)
The method, boiled down:
as §1

Compound in the experiment “Salubrinal + Navitoclax”: O=C(/C=C/c1ccccc1)NC(NC(=S)Nc1cccc2cccnc12)C(Cl)(Cl)Cl [Salubrinal] + CC1(C)CCC(c2ccc(Cl)cc2)=C(CN2CCN(c3ccc(C(=O)NS(=O)(=O)c4ccc(N[C@H](CCN5CCOCC5)CSc5ccccc5)c(S(=O)(=O)C(F)(F)F)c4)cc3)CC2)C1 [Navitoclax] (partner 0.5 µM)
The procedure, abridged:
as §1

Regarding NCI-H3122, the relative viability with Salubrinal + Luminespib (first compound 0.08 µM) was determined as 0.117; with Salubrinal + Luminespib (first compound 0.253 µM) it was 0.112; in the experiment with Salubrinal + Luminespib (first compound 0.8 µM) it was 0.0978; with Salubrinal + Luminespib (first compound 2.53 µM), 0.118; with Salubrinal + Luminespib (first compound 8 µM), 0.1; in experiment [1] (first compound 0.04 µM), 0.291. In addition, the relative viability in experiment [1] (first compound 0.1265 µM) amounted to 0.304; in experiment [1] (first compound 0.4 µM), 0.293; in experiment [1] (first compound 1.265 µM) it was 0.286; in experiment [1] (first compound 4 µM), 0.318; in the experiment with Salubrinal + Dasatinib (first compound 0.08 µM), 0.828; with Salubrinal + Dasatinib (first compound 0.253 µM) it was 0.869. For the same cell line, the relative viability came to 0.802 with Salubrinal + Dasatinib (first compound 0.8 µM); 0.846 in the experiment with Salubrinal + Dasatinib (first compound 2.53 µM); 0.914 with Salubrinal + Dasatinib (first compound 8 µM); 1.09 in the experiment with Salubrinal + Navitoclax (first compound 0.08 µM); 1.01 with Salubrinal + Navitoclax (first compound 0.253 µM); 1.06 with Salubrinal + Navitoclax (first compound 0.8 µM). The relative viability with Salubrinal + Navitoclax (first compound 2.53 µM) came to 1.06; in the experiment with Salubrinal + Navitoclax (first compound 8 µM) it was 1.09.

As for PC-3 [JPC-3], the relative viability is 0.747 with Salubrinal + Luminespib (first compound 0.08 µM); 0.511 with Salubrinal + Luminespib (first compound 0.253 µM); 0.671 with Salubrinal + Luminespib (first compound 0.8 µM); 0.736 with Salubrinal + Luminespib (first compound 2.53 µM); 0.571 with Salubrinal + Luminespib (first compound 8 µM); 0.973 in experiment [1] (first compound 0.04 µM). For the same cell line, the relative viability in experiment [1] (first compound 0.1265 µM) came to 0.992; in experiment [1] (first compound 0.4 µM), 0.974; in experiment [1] (first compound 1.265 µM) it was 0.947; in experiment [1] (first compound 4 µM) it was 0.966; with Salubrinal + Dasatinib (first compound 0.08 µM), 1.14; with Salubrinal + Dasatinib (first compound 0.253 µM), 0.762. The relative viability in the experiment with Salubrinal + Dasatinib (first compound 0.8 µM) is 1.1; with Salubrinal + Dasatinib (first compound 2.53 µM) it was 0.966; with Salubrinal + Dasatinib (first compound 8 µM), 0.961; in the experiment with Salubrinal + Navitoclax (first compound 0.08 µM), 0.859; with Salubrinal + Navitoclax (first compound 0.253 µM), 0.768; in the experiment with Salubrinal + Navitoclax (first compound 0.8 µM), 0.846. Further, the relative viability in the experiment with Salubrinal + Navitoclax (first compound 2.53 µM) and with Salubrinal + Navitoclax (first compound 8 µM) was 0.766 in each case.

In the case of PC-14, the relative viability with Salubrinal + Luminespib (first compound 0.08 µM) is 0.23; in the experiment with Salubrinal + Luminespib (first compound 0.253 µM) it was 0.118; with Salubrinal + Luminespib (first compound 0.8 µM), 0.134; with Salubrinal + Luminespib (first compound 2.53 µM), 0.151; with Salubrinal + Luminespib (first compound 8 µM) it was 0.126; in experiment [1] (first compound 0.04 µM), 1.08. The relative viability in experiment [1] (first compound 0.1265 µM) came out at 0.862; in experiment [1] (first compound 0.4 µM), 0.864; in experiment [1] (first compound 1.265 µM), 0.901; in experiment [1] (first compound 4 µM), 0.892; with Salubrinal + Dasatinib (first compound 0.08 µM), 0.313; with Salubrinal + Dasatinib (first compound 0.253 µM), 0.252. Further, the relative viability with Salubrinal + Dasatinib (first compound 0.8 µM) stood at 0.264; with Salubrinal + Dasatinib (first compound 2.53 µM), 0.203; with Salubrinal + Dasatinib (first compound 8 µM) it was 0.166; with Salubrinal + Navitoclax (first compound 0.08 µM), 1.05; in the experiment with Salubrinal + Navitoclax (first compound 0.253 µM) it was 1.01; with Salubrinal + Navitoclax (first compound 0.8 µM), 1. The relative viability in the experiment with Salubrinal + Navitoclax (first compound 2.53 µM) amounted to 1.07; with Salubrinal + Navitoclax (first compound 8 µM), 0.864.

RERF-LC-KJ: the relative viability in the experiment with Salubrinal + Luminespib (first compound 0.08 µM) came to 1.31; with Salubrinal + Luminespib (first compound 0.253 µM) it was 1.37; with Salubrinal + Luminespib (first compound 0.8 µM) it was 1.41; with Salubrinal + Luminespib (first compound 2.53 µM), 1.13; in the experiment with Salubrinal + Luminespib (first compound 8 µM), 1.08; in experiment [1] (first compound 0.04 µM) it was 0.829. For the same cell line, the relative viability in experiment [1] (first compound 0.1265 µM) amounted to 0.791; in experiment [1] (first compound 0.4 µM) it was 0.777; in experiment [1] (first compound 1.265 µM), 0.722; in experiment [1] (first compound 4 µM) it was 0.789; with Salubrinal + Dasatinib (first compound 0.08 µM) it was 0.928; with Salubrinal + Dasatinib (first compound 0.253 µM), 0.771. Moreover, the relative viability with Salubrinal + Dasatinib (first compound 0.8 µM) came to 0.92; in the experiment with Salubrinal + Dasatinib (first compound 2.53 µM), 0.827; in the experiment with Salubrinal + Dasatinib (first compound 8 µM), 0.634; with Salubrinal + Navitoclax (first compound 0.08 µM), 0.858; in the experiment with Salubrinal + Navitoclax (first compound 0.253 µM) it was 1.24; with Salubrinal + Navitoclax (first compound 0.8 µM), 0.816. The relative viability was 0.945 with Salubrinal + Navitoclax (first compound 2.53 µM) and 0.83 with Salubrinal + Navitoclax (first compound 8 µM).

For SK-LU-1, the relative viability with Salubrinal + Luminespib (first compound 0.08 µM) turned out to be 0.182; in the experiment with Salubrinal + Luminespib (first compound 0.253 µM), 0.201; in the experiment with Salubrinal + Luminespib (first compound 0.8 µM), 0.206; with Salubrinal + Luminespib (first compound 2.53 µM), 0.214; with Salubrinal + Luminespib (first compound 8 µM) it was 0.198; in experiment [1] (first compound 0.04 µM), 0.926. Besides, the relative viability in experiment [1] (first compound 0.1265 µM) was 0.937; in experiment [1] (first compound 0.4 µM) it was 1.01; in experiment [1] (first compound 1.265 µM), 0.852; in experiment [1] (first compound 4 µM), 0.83; in the experiment with Salubrinal + Dasatinib (first compound 0.08 µM), 0.188; in the experiment with Salubrinal + Dasatinib (first compound 0.253 µM), 0.22. Moreover, the relative viability amounted to 0.181 with Salubrinal + Dasatinib (first compound 0.8 µM); 0.172 in the experiment with Salubrinal + Dasatinib (first compound 2.53 µM); 0.176 in the experiment with Salubrinal + Dasatinib (first compound 8 µM); 0.917 in the experiment with Salubrinal + Navitoclax (first compound 0.08 µM); 0.745 with Salubrinal + Navitoclax (first compound 0.253 µM); 1.02 with Salubrinal + Navitoclax (first compound 0.8 µM). Moreover, the relative viability came to 0.859 with Salubrinal + Navitoclax (first compound 2.53 µM) and 0.864 with Salubrinal + Navitoclax (first compound 8 µM).

As to SK-MES-1, the relative viability was 0.86 in the experiment with Salubrinal + Luminespib (first compound 0.08 µM); 0.932 in the experiment with Salubrinal + Luminespib (first compound 0.253 µM); 0.861 with Salubrinal + Luminespib (first compound 0.8 µM); 0.613 with Salubrinal + Luminespib (first compound 2.53 µM); 0.364 with Salubrinal + Luminespib (first compound 8 µM); 0.924 in experiment [1] (first compound 0.04 µM). Further, the relative viability in experiment [1] (first compound 0.1265 µM) was found to be 0.939; in experiment [1] (first compound 0.4 µM), 0.911; in experiment [1] (first compound 1.265 µM) it was 1.03; in experiment [1] (first compound 4 µM) it was 0.912; in the experiment with Salubrinal + Dasatinib (first compound 0.08 µM) it was 0.428; with Salubrinal + Dasatinib (first compound 0.253 µM), 0.32. In addition, the relative viability in the experiment with Salubrinal + Dasatinib (first compound 0.8 µM) was 0.408; with Salubrinal + Dasatinib (first compound 2.53 µM) it was 0.371; in the experiment with Salubrinal + Dasatinib (first compound 8 µM), 0.271; with Salubrinal + Navitoclax (first compound 0.08 µM), 1.39; with Salubrinal + Navitoclax (first compound 0.253 µM) it was 1.12; in the experiment with Salubrinal + Navitoclax (first compound 0.8 µM) it was 1.33. For the same cell line, the relative viability with Salubrinal + Navitoclax (first compound 2.53 µM) turned out to be 1.24; with Salubrinal + Navitoclax (first compound 8 µM), 1.12.

For SW 1573, the relative viability with Salubrinal + Luminespib (first compound 0.08 µM) is 0.211; with Salubrinal + Luminespib (first compound 0.253 µM), 0.26; with Salubrinal + Luminespib (first compound 0.8 µM), 0.206; with Salubrinal + Luminespib (first compound 2.53 µM), 0.238; with Salubrinal + Luminespib (first compound 8 µM), 0.169; in experiment [1] (first compound 0.04 µM), 0.924. The relative viability in experiment [1] (first compound 0.1265 µM) was determined as 0.792; in experiment [1] (first compound 0.4 µM), 0.704; in experiment [1] (first compound 1.265 µM), 0.895; in experiment [1] (first compound 4 µM), 0.659; with Salubrinal + Dasatinib (first compound 0.08 µM) it was 0.553; in the experiment with Salubrinal + Dasatinib (first compound 0.253 µM), 0.488. The relative viability with Salubrinal + Dasatinib (first compound 0.8 µM) turned out to be 0.627; with Salubrinal + Dasatinib (first compound 2.53 µM) it was 0.402; with Salubrinal + Dasatinib (first compound 8 µM), 0.417; in the experiment with Salubrinal + Navitoclax (first compound 0.08 µM) it was 1.02; with Salubrinal + Navitoclax (first compound 0.253 µM), 1; with Salubrinal + Navitoclax (first compound 0.8 µM), 0.937. Moreover, the relative viability came to 0.929 with Salubrinal + Navitoclax (first compound 2.53 µM) and 1.01 with Salubrinal + Navitoclax (first compound 8 µM).
